{"source": "patent US20110118464A1", "about": "“HALOGENATED XANTHINE DERIVATIVES AND PRECURSORS THEREOF FOR ANTI-CANCER AND ANTI-METASTASIS ACTIVITY AND PREPARING METHOD THEREOF” (Kaohsiung Medical University, priority 2009, published 2011)", "key": {"[1]": {"system": "cAMP (cyclic adenosine monophophate)", "assay": "cAMP concentration in LNCaP cells", "format": "cell-based, human"}, "p27 protein": {"system": "p27 protein", "assay": "Immunoblotting of p27 in LNCaP", "format": "cell-based, human", "protocol": "(§1) The amount of protein is determined by Bio-Rad protein reagent. Bovine serum albumin (BSA) of 0.1 mg/ml is the protein standard in the protein assay. Distilled water of 240 μl containing various known protein standards (the amounts of protein respectively are 0, 2, 4, 8, 12, 16, 20 and 30 μg) and 60 μl of Bio-Rad reagent are mixed gently in 96-well cell culture plate. The absorbance at the wavelength of 595 nm relative to the absorbance of blank test is determined using spectrophotometer (Hitachi U-200, Japan). A standard curve is evaluated from the known amounts of the protein standards and the absorbance thereof, and the amounts of the unknown proteins can be obtained according to this standard curve.\n(§2) The quantified proteins are resolved by sodium dodecyl sulfate-polyacrylamide gel electrophoresis (SDS-PAGE), and the protein expression is evaluated by immunoblotting. The dilution rate of primary antibodies (i.e. anti-AR, anti-p21, anti-p27, anti-cyclin D, anti-cdk4 and anti-cdk6) is 1000 times, and that of anti-β-actin is 5000 times. The primary antibody detects the proteins for 1 hour, and the primary antibody is detected with the horseradish peroxidase (HRP)-conjugated secondary antibody for 1 hour. Finally, the detected protein are developed with enhanced chemical luminescence."}, "[2]": {"system": "human prostate carcinoma PC-3", "assay": "MTT assay, survival rate of PC-3", "settings": "various concentrations, 24 and 48 hours, FIG. 7(C)"}, "Cyclin D protein": {"system": "Cyclin D protein", "assay": "Immunoblotting of Cyclin D in LNCaP", "format": "cell-based, human", "protocol": "as §1, §2"}, "Bax/Bcl-2 ratio": {"system": "Bax/Bcl-2 ratio", "assay": "Bax/Bcl-2 ratio in LNCaP", "format": "cell-based, human", "settings": "various concentrations, 48 hours, FIG. 16(C)"}, "LNCaP prostate tumor": {"system": "LNCaP prostate tumor", "assay": "Tumor size in LNCaP-xenografted rude mice", "format": "in vivo", "settings": "for dose at which the significant effect is obtained: data not shown; for effect on LNCaP prostate tumor compared with the control: once per day for two months", "protocol": "In addition to observe the inhibition effect of the halogenated xanthine derivatives on the cancer cell lines in the cellular level, the animal experiments are further performed. LNCaP-xenografted rude mice are injected intraperitoneally with KMUP-1 ([…]) and dosed orally with KMUP-1 (200 and 400 mg/kg) respectively once per day, and a continuity for two months. […] The significant effect can be obtained (data not shown) when KMUP-1 is 100 mg/kg. […] The significant effect can be obtained (data not shown) when KMUP-1 is 200 mg/kg."}, "[3]": {"system": "human prostate carcinoma DU145", "assay": "MTT assay, survival rate of DU145", "settings": "various concentrations, 24 and 48 hours, FIG. 7(B)"}, "[4]": {"system": "human prostate carcinoma LNCaP", "assay": "MTT assay, survival rate of LNCaP", "settings": "various concentrations, 24 and 48 hours, FIG. 7(A)"}, "CDK4 protein": {"system": "CDK4 protein", "assay": "Immunoblotting of CDK4 in LNCaP", "format": "cell-based, human", "protocol": "as §1, §2"}, "[5]": {"system": "dihydrotestosterone receptor", "assay": "Dihydrotestosterone receptor expression in LNCaP", "format": "cell-based, human", "settings": "100 μM, 48 hours, FIG. 10(B)", "protocol": "as §1, §2"}, "AR (androgen receptor)": {"system": "AR (androgen receptor)", "assay": "Immunoblotting of AR in LNCaP", "format": "cell-based, human", "settings": "100 μM, 48 hours, FIG. 10(A)", "protocol": "as §1, §2"}, "[6]": {"assay": "Body weight of LNCaP-xenografted rude mice", "format": "in vivo"}, "p21": {"system": "p21", "settings": "Liu et al., 2007; cited from earlier work"}, "Bcl-2": {"system": "Bcl-2", "assay": "Bcl-2 expression in LNCaP", "format": "cell-based, human", "settings": "various concentrations, 48 hours, FIG. 16(B)"}, "[7]": {"system": "cGMP (3′,5′-cyclic guanosine monophosphate)", "assay": "cGMP concentration in LNCaP cells", "format": "cell-based, human", "settings": "for cGMP concentration: 48 hours, FIG. 9(A)"}, "[8]": {"system": "human tongue squamous cell carcinoma SCC-25", "assay": "MTT assay, survival rate of SCC-25", "settings": "0.1-100 μM, 24 and 48 hours, FIG. 2"}, "p21 protein": {"system": "p21 protein", "assay": "Immunoblotting of p21 in LNCaP", "format": "cell-based, human", "protocol": "as §1, §2"}, "[9]": {"system": "human prostate carcinoma LNCaP", "assay": "Analysis of cell cycle in LNCaP", "format": "cell-based", "settings": "increased concentrations, 24 and 48 hours, FIG. 8", "quoted_text": "The counted cells (10^5 cells/ml×3 ml) are seeded in the 6-well cell culture plate for 24 hours for attaching on the bottom of the cell culture plate, then DMEM/F12 medium without fetal bovine serum (FBS) is added therein for further incubation for 24 hours. Next, the medium is replaced with DMEM/F12 supplemented with 10% FBS, and the drugs at different concentrations are respectively added therein for reacting 24 and 48 hours. The cellular inoculate is harvested, and the wells are washed with phosphate buffered saline (PBS) for twice or triplet. The cells are eluted with 0.25% trypsin-0.02% EDTA, and are collected with the original inoculate in the centrifuge tube which is centrifuged at 4° C. at 1250×g (1200 rpm) for 5 minutes. Next, the supernatant is discarded and the pellet is resuspended in 1 ml PBS and the resuspended cells are transferred to an eppendorf tube which is centrifuged once again. The supernatant is discarded, and the cells are fixed with 300 μl PBS (4° C.) and 700 μl of 99.5% ethanol (50, 50, 100, 100, 200 and 200 μl ethanol respectively and sequentially added to make the cells resuspended in the well) for 30 minutes. […] The cells are transferred into a tube, and the cells are detected using CyFlow® cytometer. The ratios of G0/G1, S and G2/M phases are determined using multicycle DNA analysis software."}, "PZ-HPV-7 cells": {"system": "PZ-HPV-7 cells", "settings": "Liu et al., 2007; cited from earlier work"}, "Bax": {"system": "Bax", "assay": "Bax expression in LNCaP", "format": "cell-based, human", "settings": "various concentrations, 48 hours, FIG. 16(A)"}, "[10]": {"system": "human prostate epithelial PZ-HPV-7", "settings": "Liu et al., 2007; cited from earlier work"}}}
{"smiles": "Nc1ncnc2c1ncn2C1CCCO1", "note": "(stereo not drawn) [SQ22536, reference compound]", "values": [{"measurement": "antagonism of the KMUP-1 effect on cAMP", "setting": "[1]; 10 μM SQ22536 with 100 μM KMUP-1, 48 hours", "result": "can antagonize the improved effect of KMUP-1"}]}
{"smiles": "Cn1c(=O)c2c(ncn2CCN2CCN(c3ccccc3Cl)CC2)n(C)c1=O", "note": "[KMUP-1, 7-[2-[4-(2-chlorobenzene)piperazinyl]ethyl]-1,3-dimethylxanthine]", "values": [{"measurement": "p27 expression at 100 μM relative to that at 1 μM", "setting": "p27 protein; 24 hours", "result": "twice"}, {"measurement": "p27 expression", "setting": "p27 protein; various concentrations, 24 and 48 hours, FIG. 12", "result": "would be increased"}, {"measurement": "survival rate relative to the control", "setting": "[2]", "result": "decrease with the increased concentrations of KMUP-1"}, {"measurement": "Cyclin D expression at 100 μM relative to that at 1 μM", "setting": "Cyclin D protein; 24 hours", "result": "one ninth"}, {"measurement": "Cyclin D expression at 100 μM relative to that at 1 μM", "setting": "Cyclin D protein; 48 hours", "result": 20, "unit": "%"}, {"measurement": "Cyclin D expression", "setting": "Cyclin D protein; various concentrations, 24 and 48 hours, FIG. 13", "result": "would be decreased"}, {"measurement": "Bax/Bcl-2 ratio", "setting": "Bax/Bcl-2 ratio", "result": "increases with the increased concentration of KMUP-1"}, {"measurement": "LNCaP prostate tumor size", "setting": "LNCaP prostate tumor; injected subcutaneously, 100 and 150 mg/kg, FIG. 17(A)", "result": "does not enlarge anymore"}, {"measurement": "dose at which the significant effect is obtained", "setting": "LNCaP prostate tumor; intraperitoneal injection", "result": 100, "unit": "mg/kg"}, {"measurement": "effect on LNCaP prostate tumor compared with the control", "setting": "LNCaP prostate tumor; intraperitoneal injection", "result": "can significantly eliminate the LNCaP prostate tumor"}, {"measurement": "dose at which the significant effect is obtained", "setting": "LNCaP prostate tumor; oral dosage", "result": 200, "unit": "mg/kg"}, {"measurement": "effect on LNCaP prostate tumor compared with the control", "setting": "LNCaP prostate tumor; oral dosage", "result": "can significantly eliminate the LNCaP prostate tumor"}, {"measurement": "LNCaP prostate tumor size", "setting": "LNCaP prostate tumor; orally dosed, 400 mg/kg, FIG. 18(A)", "result": "does not enlarge anymore"}, {"measurement": "survival rate relative to the control", "setting": "[3]", "result": "decrease with the increased concentrations of KMUP-1"}, {"measurement": "survival rate relative to the control", "setting": "[4]", "result": "decrease with the increased concentrations of KMUP-1"}, {"measurement": "CDK4 expression at 100 μM relative to that at 1 μM", "setting": "CDK4 protein; 48 hours", "result": 50, "unit": "%"}, {"measurement": "CDK4 expression", "setting": "CDK4 protein; various concentrations, 24 and 48 hours, FIG. 14", "result": "would be decreased"}, {"measurement": "dihydrotestosterone receptor expression", "setting": "[5]", "result": "relatively low"}, {"measurement": "AR expression", "setting": "AR (androgen receptor)", "result": "completely inhibited"}, {"measurement": "body weight, experimental group versus control group", "setting": "[6]; dosed orally, eight weeks, FIG. 18(B)", "result": "do not have significant difference"}, {"measurement": "body weight", "setting": "[6]; subcutaneous injection, FIG. 17(B)", "result": "can decrease the body weight"}, {"measurement": "p21 expression in PZ-HPV-7", "setting": "p21", "result": "increase p21 expression"}, {"measurement": "Bcl-2 expression", "setting": "Bcl-2", "result": "decreases with the increased concentration of KMUP-1"}, {"measurement": "cGMP concentration", "setting": "[7]; KMUP-1 individually", "result": "increases the content of cGMP"}, {"measurement": "cGMP concentration", "setting": "[7]; together with 1 μM ODQ", "result": "the increased effect is not significant as KMUP-1 individually functioned on LNCaP cells"}, {"measurement": "survival rate relative to the control", "setting": "[8]", "result": "decreases with the increased concentrations of KMUP-1"}, {"measurement": "p21 expression at 100 μM relative to that at 1 μM", "setting": "p21 protein", "result": "four times"}, {"measurement": "p21 expression", "setting": "p21 protein; various concentrations, 24 and 48 hours, FIG. 11", "result": "would be increased"}, {"measurement": "effect on cell cycle", "setting": "[9]", "result": "cease in G0/G1 phase and tend to sub-G1 phase"}, {"measurement": "effect on cell cycle of PZ-HPV-7", "setting": "PZ-HPV-7 cells", "result": "cease of cell cycle at G0/G1 phase"}, {"measurement": "cAMP concentration versus 100 μM KMUP-1 individually", "setting": "[1]; 100 μM KMUP-1 plus 10 μM SQ22536, 48 hours", "result": "can decrease the amount of cAMP in LNCaP cells"}, {"measurement": "cAMP concentration", "setting": "[1]; KMUP-1 individually, 48 hours, FIG. 9(B)", "result": "increases the amount of cAMP in LNCaP cells"}, {"measurement": "Bax expression", "setting": "Bax", "result": "has no difference with the increased concentration of KMUP-1"}, {"measurement": "growth of PZ-HPV-7", "setting": "[10]", "result": "can inhibit the growth"}]}
{"smiles": "O=c1onc2cnc3ccccc3n12", "note": "[ODQ, 1H-[1,2,4]oxadiazolo[4,3-a]quinoxalin-1-one, reference compound]", "values": [{"measurement": "antagonism of the KMUP-1 effect on cGMP", "setting": "[7]; 1 μM ODQ with KMUP-1, 48 hours", "result": "antagonists to each other"}]}
